The results in this text go back to paper PMC4880308, “Elongation Factor Tu Prevents Misediting of Gly-tRNA(Gly) Caused by the Design Behind the Chiral Proofreading Site of D-Aminoacyl-tRNA Deacylase” (PLoS Biology, 2016).

Data set [1] deals with T1, PfDTD (D-aminoacyl-tRNA deacylase from Plasmodium falciparum) (Plasmodium falciparum, UniProt Q8IIS0).
T1 construct: gene DTD; recombinant; C-terminal His-tagged U-15N protein for NMR; dimer with cross-subunit Gly-cisPro motif in the active site
T1 sequence (Q8IIS0 1-164): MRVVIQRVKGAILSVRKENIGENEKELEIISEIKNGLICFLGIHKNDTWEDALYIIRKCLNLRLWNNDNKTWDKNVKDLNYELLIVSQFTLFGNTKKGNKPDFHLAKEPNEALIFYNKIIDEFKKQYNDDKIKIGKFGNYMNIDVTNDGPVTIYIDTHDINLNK
The data set is described as follows: 2D […]-1H TROSY NMR titration (chemical shift perturbation). The format is binding. Conditions: substrate analog; 50 mM HEPES pH 7.0, 50 mM NaCl; 0.2 mM protein, up to 3 mM ligand.

Data set [2] concerns the molecule itself. Kind of data set: crystal structure; co-crystal of PfDTD with Gly3AA (molar ratio 1:20), P2(1), eight monomers in the asymmetric unit; 0.1 M HEPES pH 7.5, 0.4 M NaCl, 28% PEG3350.

Turning to `C[C@@H](N)C(=O)N[C@H]1[C@@H](O)[C@H](n2cnc3c(N)ncnc32)O[C@@H]1CO` [D-Ala3AA, D-alanyl-3′-aminoadenosine], the “2D 15N-1H TROSY NMR titration (chemical shift perturbation)” value in data set [1] is “the data indicated binding of D-Ala3AA but not of L-Ala3AA”.

B1: D-aminoacyl-tRNA deacylase from Plasmodium falciparum (enzyme)
chain: MRVVIQRVKGAILSVRKENIGENEKELEIISEIKNGLICFLGIHKNDTWEDALYIIRKCLNLRLWNNDNKTWDKNVKDLNYELLIVSQFTLFGNTKKGNKPDFHLAKEPNEALIFYNKIIDEFKKQYNDDKIKIGKFGNYMNIDVTNDGPVTIYIDTHDINLNK
notes: D-aminoacyl-tRNA deacylase (DTD), Plasmodium falciparum, UniProt Q8IIS0; no tag is stated for the crystallised protein; The crystal also holds the small-molecule ligand Gly3AA; also called PfDTD; DTD; source: cloned, expressed, and purified as described in [15]
Regarding B1, the binding result in data set [2] is “binds”.
